Experimental data as given in ChEMBL document CHEMBL1201862, “PubChem BioAssay data set” (2004).
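Where inhibition never reached the appropriate level, the endpoint shown equals the highest concentration tested. Otherwise, values were interpolated linearly from a five-concentration, 48-hour dose response in 96-well plates. At the GI50, growth is halved.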 The source made the active and inactive calls. Cut-off read from the data, not from the text of the source: active = GI50 up to about 1.1 µM and inactive = higher.

Assays:
Assay in all cases: DTP human tumour cell line panel, 48 h
[1] = system: RPMI-8226
[2] = system: COLO 205
[3] = system: NCI/ADR-RES
[4] = system: SNB-75
[5] = system: K562
[6] = system: SF-539
[7] = system: OVCAR-4
[8] = system: OVCAR-8
[9] = system: A549
[10] = system: KM12
[11] = system: CCRF-CEM
[12] = system: OVCAR-3
[13] = system: SW-620
[14] = system: LOX IMVI
[15] = system: A498
[16] = system: 786-0
[17] = system: SK-MEL-5
[18] = system: EKVX
[19] = system: BT-549

COC(CN(C=O)[C@@H](c1ccc(Cl)cc1)c1cc2ccccc2o1)OC
GI50 [1]: 16 µM (inactive) | GI50 [2]: 17.6 µM (inactive) | GI50 [3]: 18.3 µM (inactive) | GI50 [4]: 22.9 µM (inactive) | GI50 [5]: 24.4 µM (inactive) | GI50 [6]: 17.9 µM (inactive) | GI50 [7]: 19.2 µM (inactive) | GI50 [8]: 16 µM (inactive) | GI50 [9]: 21 µM (inactive) | GI50 [10]: 11.1 µM (inactive) | GI50 [11]: 21.1 µM (inactive) | GI50 [12]: 12.7 µM (inactive) | GI50 [13]: 16.6 µM (inactive) | GI50 [14]: 16.3 µM (inactive) | GI50 [15]: 18.9 µM (inactive) | GI50 [16]: 23.6 µM (inactive) | GI50 [17]: 15.5 µM (inactive) | GI50 [18]: 15.8 µM (inactive)

Cc1ccc(/C=N/Nc2ncccn2)s1
GI50 [1]: > 100 µM (inactive) | GI50 [2]: > 100 µM (inactive) | GI50 [3]: > 100 µM (inactive) | GI50 [4]: > 100 µM (inactive) | GI50 [5]: > 10 µM (inactive) | GI50 [6]: > 100 µM (inactive) | GI50 [7]: > 100 µM (inactive) | GI50 [8]: > 100 µM (inactive) | GI50 [9]: > 100 µM (inactive) | GI50 [10]: > 100 µM (inactive) | GI50 [11]: > 100 µM (inactive) | GI50 [12]: > 100 µM (inactive) | GI50 [13]: > 100 µM (inactive) | GI50 [14]: > 100 µM (inactive) | GI50 [16]: > 100 µM (inactive) | GI50 [17]: > 100 µM (inactive) | GI50 [18]: > 100 µM (inactive)

CN(C)c1nc(NN)c2c(-c3ccccc3)c(-c3ccccc3)oc2n1
GI50 [1]: > 100 µM (inactive) | GI50 [2]: > 100 µM (inactive) | GI50 [3]: > 100 µM (inactive) | GI50 [4]: 96.8 µM (inactive) | GI50 [5]: 49 µM (inactive) | GI50 [6]: > 100 µM (inactive) | GI50 [7]: 35.1 µM (inactive) | GI50 [8]: > 100 µM (inactive) | GI50 [9]: > 100 µM (inactive) | GI50 [10]: > 100 µM (inactive) | GI50 [11]: 52.5 µM (inactive) | GI50 [13]: > 100 µM (inactive) | GI50 [14]: > 100 µM (inactive) | GI50 [15]: > 100 µM (inactive) | GI50 [16]: > 100 µM (inactive) | GI50 [18]: > 100 µM (inactive)

CCOP(C)(=O)C(Nc1ccc(F)cc1)c1ccc(F)cc1 (centres undefined)
GI50 [1]: > 100 µM (inactive) | GI50 [2]: > 100 µM (inactive) | GI50 [3]: > 100 µM (inactive) | GI50 [5]: > 100 µM (inactive) | GI50 [6]: > 100 µM (inactive) | GI50 [7]: > 100 µM (inactive) | GI50 [8]: > 100 µM (inactive) | GI50 [9]: > 100 µM (inactive) | GI50 [10]: > 100 µM (inactive) | GI50 [11]: > 100 µM (inactive) | GI50 [12]: > 100 µM (inactive) | GI50 [13]: > 100 µM (inactive) | GI50 [14]: > 100 µM (inactive) | GI50 [15]: > 100 µM (inactive) | GI50 [16]: > 100 µM (inactive) | GI50 [17]: > 100 µM (inactive) | GI50 [18]: > 100 µM (inactive)

c1ccc2cc3c(cc2c1)nc1ccccn13
GI50 [1]: > 100 µM (inactive) | GI50 [2]: > 100 µM (inactive) | GI50 [3]: > 100 µM (inactive) | GI50 [4]: > 100 µM (inactive) | GI50 [5]: > 100 µM (inactive) | GI50 [19]: > 100 µM (inactive) | GI50 [6]: > 100 µM (inactive) | GI50 [8]: > 100 µM (inactive) | GI50 [9]: > 100 µM (inactive) | GI50 [10]: > 100 µM (inactive) | GI50 [11]: > 100 µM (inactive) | GI50 [12]: > 100 µM (inactive) | GI50 [13]: > 100 µM (inactive) | GI50 [16]: > 100 µM (inactive) | GI50 [17]: > 100 µM (inactive) | GI50 [18]: > 100 µM (inactive)

Cc1cccc2nc(-c3ccccc3)cc(=O)n12
GI50 [1]: > 100 µM (inactive) | GI50 [2]: > 100 µM (inactive) | GI50 [3]: 44.9 µM (inactive) | GI50 [5]: > 100 µM (inactive) | GI50 [19]: 85.5 µM (inactive) | GI50 [6]: > 100 µM (inactive) | GI50 [7]: > 100 µM (inactive) | GI50 [8]: 88.3 µM (inactive) | GI50 [9]: > 100 µM (inactive) | GI50 [10]: > 100 µM (inactive) | GI50 [11]: > 100 µM (inactive) | GI50 [12]: > 100 µM (inactive) | GI50 [13]: > 100 µM (inactive) | GI50 [16]: > 100 µM (inactive) | GI50 [17]: 38.2 µM (inactive) | GI50 [18]: 7.26 µM (inactive)

CCOC(=O)C1CCCc2sc(N)c(C#N)c21 (centres undefined)
GI50 [1]: > 100 µM (inactive) | GI50 [2]: > 100 µM (inactive) | GI50 [4]: > 100 µM (inactive) | GI50 [5]: > 100 µM (inactive) | GI50 [19]: 55.5 µM (inactive) | GI50 [8]: > 100 µM (inactive) | GI50 [9]: > 100 µM (inactive) | GI50 [10]: > 100 µM (inactive) | GI50 [13]: > 100 µM (inactive) | GI50 [15]: > 100 µM (inactive) | GI50 [16]: > 100 µM (inactive) | GI50 [17]: > 100 µM (inactive) | GI50 [18]: 57.3 µM (inactive)

CCN(CCCl)c1cc(CN(C)C)cc(NC(=O)c2ccc(C(=O)Nc3cccc(CN(C)C)c3)cc2)c1
GI50 [1]: 2.16 µM (inactive) | GI50 [2]: 1.13 µM (inactive) | GI50 [3]: > 100 µM (inactive) | GI50 [4]: 0.695 µM (active) | GI50 [5]: 0.321 µM (active) | GI50 [6]: 0.457 µM (active) | GI50 [7]: 0.607 µM (active) | GI50 [8]: 0.889 µM (active) | GI50 [9]: 2.2 µM (inactive) | GI50 [10]: 1.28 µM (inactive) | GI50 [11]: 0.0708 µM (active) | GI50 [13]: 0.225 µM (active) | GI50 [14]: 0.201 µM (active) | GI50 [15]: 2.65 µM (inactive) | GI50 [16]: 0.383 µM (active) | GI50 [17]: 0.213 µM (active)
